# Assays:
# DSS-induced colitis = test: Acute DSS-induced colitis in mice: DAI, body weight, stools, colon length and weight, tolerability; format: in vivo, C57BL/6 mice; conditions: for DAI (table title: DAT Time Course Data): DSS days 7-13; for mice with weight loss: weight loss defined as >1%
# Procedure: Mice were dosed once daily for a period of 13 days by oro-gastric gavage with a 20 gauge, one-inch long needle (Popper & Sons, New Hyde Park, N.Y.). Dosages comprised either 40 mg/kg dose of metronidazole or 5×10^9 CFU/ml probiotic solution. A 0.6% saline solution was administered as a control.
# Disease Activity Indices (DAIs) were determined either daily or on alternate days, by evaluation of stool consistency and occult blood in the stool and weight loss on a standardized severity scale, as shown in Table 1 (Murthy, 1993).
# Disease Activity Index (DAI) Calculation: The individual scores for weight loss, stool consistency, and occult blood/bleeding are determined, and divided by 3 to determine a mean DAI for the mouse. For example, if an animal lost 12% of the initial body weight [score=3], had evidence of diarrhea [score=4], and evidence of gross rectal bleeding [score=4], the mean DAI would be 3±4±4=11/3=3.7
# In Example 3, weight loss was not very evident in the DSS-treated mice. Therefore, a modified DAI calculation was used. The modfied DAIs were calculated similarly to the DAIs of Table 1, but only the stool consistency and occult blood components were used for this determination.
# Colitis was then induced by providing the mice with a solution of 2% DSS (w/v) dissolved in the filtered water for days 7 to 13 of the study. One group of mice received water without DSS. Water consumption and body weight were recorded throughout the study.
# (§1) On day 13 of the study, animals were euthanized by exposure to carbon dioxide. The colon was rapidly removed and the total colon length was determined to the nearest 0.1 cm. Typically, a 2.5 cm segment of distal colon was fixed in 10% buffered formalin, for a subsequent histological evaluation (see below). The adjacent 2.5 cm segment of colon was weighed and then frozen in liquid nitrogen. This segment of colon was used for the evaluation of colonic MPO, as well as colonic cytokine levels.
# Control mice received 0.6% saline.
# colonic MPO = test: Colonic myeloperoxidase (TMB method) in DSS colitis; format: in vivo, C57BL/6 mice; conditions: day 13, M-17 5×10^9 CFU/ml, metronidazole 40 mg/kg
# Procedure: as §1
# The 2.5 segment of colon was homogenized for about 30 seconds in 0.5 ml of molecular biology grade distilled water, using a hand-held tissue homogenizer (TissueMiser) from Fisher Scientific (Pittsburgh, Pa.). The homogenate was then centrifuged at 10,000 RPM at 4° C. for 15 minutes. The pellet was resuspended in hexadecyltrimethylammonium bromide (HTAB) buffer (pH 6.0), for the measurement of colonic MPO. MPO was assayed by the tetramethylbenzidine (TMB) method (Fitzpatrick, 2000).
# IL-1β = test: Colonic cytokine ELISA in DSS colitis: IL-1β; format: in vivo, C57BL/6 mice; conditions: day 13, M-17 5×10^9 CFU/ml, metronidazole 40 mg/kg
# Procedure: as §1
# (§2) The supernatant fraction from the colonic homogenate (see above) was aliquoted into appropriate test tubes and frozen at −70° C. Subsequently, the supernatants were used to measure relevant pro-inflammatory cytokines [e.g., IFN-γ, IL-1β, TNF-α, IL-12] using commercially available mouse ELISA kits (Fitzpatrick 2000). The data was typically expressed as pg/2.5 cm of colon.
# IFN-γ = test: Colonic cytokine ELISA in DSS colitis: IFN-γ; format: in vivo, C57BL/6 mice; conditions: day 13, M-17 5×10^9 CFU/ml, metronidazole 40 mg/kg
# Procedure: as §1, §2
# IL-12 = test: Colonic cytokine ELISA in DSS colitis: IL-12; format: in vivo, C57BL/6 mice; conditions: day 13, M-17 5×10^9 CFU/ml, metronidazole 40 mg/kg
# Procedure: as §1, §2
# IL-6 = test: Colonic cytokine ELISA in DSS colitis: IL-6; format: in vivo, C57BL/6 mice; conditions: day 13, M-17 5×10^9 CFU/ml, metronidazole 40 mg/kg
# Procedure: as §1, §2
# IL-10 = test: Colonic cytokine ELISA in DSS colitis: IL-10; format: in vivo, C57BL/6 mice; conditions: day 13, M-17 5×10^9 CFU/ml, metronidazole 40 mg/kg
# Procedure: as §1, §2
# [1] = tested on: distal colon histological damage; test: Colonic histology score in DSS colitis; format: in vivo, C57BL/6 mice; conditions: day 13, M-17 5×10^9 CFU/ml, metronidazole 40 mg/kg
# Procedure: Distal colonic specimens were processed by standard methods and embedded in paraffin by the Histology core facility at the Penn State University College of Medicine. Microscope slides were coded. Using coded hematoxylin-eosin H&E slides (1 slide per mouse) from the distal colon, colonic histology scores were determined from six different areas on the slide (Williams, 2001; Krieglstein, 2001). A mean total histology score value was calculated for each mouse.
# Total Histology Scores were determined by multiplying the percent involvement for each of the 3 different histological features by the area of involvement. Using this scoring system, the minimal score=0 and the maximal score=40. The percent involvement was determined with a 25 mm ocular grid attached to an Olympus CH light microscope. The histological evaluation was performed at a 400× magnification.
# [2] = tested on: individual isolates of the aerobic and facultative gram positive and gram negative flora; test: Metronidazole ex vivo on fecal isolates; format: cell-based; conditions: ex vivo at 50 μg/ml
# E. coli ATCC 202226 = test: Kirby-Bauer disc diffusion; format: cell-based, Escherichia coli; conditions: 50 μg metronidazole paper disc, Mueller-Hinton Agar, overnight
# Procedure: The Kirby-Bauer disc diffusion method was used to determine the relative sensitivity of E. coli ATCC 202226 to metronidazole (Bauer, 1966). Five colonies of E. coli ATCC 202226 were picked from trypticase soy agar (TSA) using a sterile inoculation loop and suspended in trypticase soy broth (TSB). The TSB culture was grown for 6 hours at 37° C./200 rpm. This culture was diluted in TSB to match a 0.5 McFarland turbidity standard prior to saturating a sterile cotton swab and streaking the culture onto the surface of a Mueller-Hinton Agar plate. After allowing the surface of the plate to dry, a 50 μg metronidazole paper disc (Oxoid) was placed on the lawn. The plate was incubated overnight and the zone of inhibition was recorded.
# TNF-α, IL-1β and IL-6 = test: RAW 264.7 macrophages: cytokine secretion, cytokines not told apart; format: cell-based, mouse; conditions: metronidazole 50 μg/ml; heat-killed M-17 1×10^8 CFU/ml; conditioned media 10% (v/v)
# Procedure: The RAW 264.7 mouse macrophage cell line was obtained from American Type Culture Collection (ATCC). RAW 264.7 cells were grown in Dulbecco's Modified Eagle's Medium (DMEM) containing 10% FBS (Fetal Bovine Serum). The lipopolysaccharide (LPS) stimulation studies were conducted at a cell density of 2×10^6/ml. […] For the NF-κB p65 measurement, nuclear extracts were obtained from cells either immediately (0 hours) or 3 hours after LPS-stimulation. A protein determination of the nuclear extracts was done with the Bio-Rad protein assay (Bio-Rad Laboratories). For the p65 analysis, 10 μg of protein was utilized per sample. The nuclear binding of p65 was measured with the TransAM™ NF-κB p65 assay kit, according to the manufacturer's instructions.
# For the cytokine secretion experiments, after 0 or 4 hours of LPS exposure, the culture medium was collected for the measurement of cytokines (TNF-α, IL-1β and IL-6) by ELISA (Pierce-Endogen), according to the manufacturer's directions. […] The media was then collected and centrifuged at 10,000 RPM for 10 minutes. Next, the CM was passed through a 0.22 micron filter prior to use in cytokine secretion experiments. […] The pellet was then resuspended in a sufficient quantity of saline to achieve a final concentration of 1×10^8 CFU/ml. […] In some experiments, we also evaluated whether metronidazole ([…]) could inhibit cytokine secretion.
# [3] = after single, intravenous infusion; cited from earlier work
# [4] = day 13, M-17 5×10^9 CFU/ml, metronidazole 40 mg/kg, DSS
compound,measurement,setting,value
"Cc1ncc([N+](=O)[O-])n1CCO [metronidazole, 1-(beta-hydroxyethyl)-2-methyl-5-nitroimidazole]",reduction in mean DAI score compared with DSS-treated mice that received vehicle,"DSS-induced colitis; day 13, M-17 5×10^9 CFU/ml, metronidazole 40 mg/kg",47.4%
same,Colon length,DSS-induced colitis; [4],6.8±0.2 cm
same,Colon wt.,DSS-induced colitis; [4],70 ± 3 mg/2.5 cm
same,Colon length,"DSS-induced colitis; day 13, M-17 5×10^9 CFU/ml, metronidazole 40 mg/kg, DSS, listed as Metro",6.8 ± 0.2 cm
same,Modified DAI (0-4),"DSS-induced colitis; day 13, stool consistency and occult blood only, M-17 5×10^9 CFU/ml, metronidazole 40 mg/kg",1.0 ± 0.2
same,DAI (table title: DAT Time Course Data),"DSS-induced colitis; study day 0, M-17 5×10^9 CFU/ml, metronidazole 40 mg/kg",0 ± 0
same,DAI (table title: DAT Time Course Data),"DSS-induced colitis; study day 2, M-17 5×10^9 CFU/ml, metronidazole 40 mg/kg",0 ± 0
same,DAI (table title: DAT Time Course Data),"DSS-induced colitis; study day 4, M-17 5×10^9 CFU/ml, metronidazole 40 mg/kg",0.3 ± 0.2
same,DAI (table title: DAT Time Course Data),"DSS-induced colitis; study day 6, M-17 5×10^9 CFU/ml, metronidazole 40 mg/kg",0.2 ± 0.1
same,DAI (table title: DAT Time Course Data),"DSS-induced colitis; study day 8, M-17 5×10^9 CFU/ml, metronidazole 40 mg/kg",0.1 ± 0.1
same,DAI (table title: DAT Time Course Data),"DSS-induced colitis; study day 10, M-17 5×10^9 CFU/ml, metronidazole 40 mg/kg",0.7 ± 0.2
same,DAI (table title: DAT Time Course Data),"DSS-induced colitis; study day 12, M-17 5×10^9 CFU/ml, metronidazole 40 mg/kg",0.6 ± 0.2\
same,DAI (table title: DAT Time Course Data),"DSS-induced colitis; study day 13, M-17 5×10^9 CFU/ml, metronidazole 40 mg/kg",1.0 ± 0.2\
same,mice with weight loss,DSS-induced colitis; DSS-phase (days 7-13),30%
same,mice with weight loss,DSS-induced colitis; figures given before those of the DSS-phase,50%
same,MPO,colonic MPO,4.3 ± 1.0 U/2.5 cm
same,IL-1β,IL-1β,359 ± 85 pg/2.5 cm
same,IFN-γ,IFN-γ,56 ± 28 pg/2.5 cm
same,IL-12,IL-12,32 ± 2 pg/2.5 cm
same,IL-6,IL-6,372 ± 75 pg/2.5 cm
same,IL-10,IL-10,91 ± 7 pg/2.5 cm
same,Histology Score (0-40),[1],12.4 ± 0.9
same,inhibition of individual isolates,[2],did not inhibit
same,zone of inhibition,E. coli ATCC 202226,No zone of inhibition
same,LPS-stimulated cytokine secretion,"TNF-α, IL-1β and IL-6",did not reduce
same,half-life,[3],7.3 ± 1.0 h
